Measurements from patent US11377442B2, “Small molecule agonists and antagonists of NR2F6 activity” (ZANDER THERAPEUTICS, INC., priority 2016, dated 2022).

Columns and labels:
Type in all cases: cell-based
HEK293 pGL4 = assay: Firefly_pGL signal, cmpd/DMSO (pGL4 control cells); conditions: Homo sapiens, HEK293, Table 14, read-out: Firefly pGL4, cmpd/DMSO (mean)
Renilla = Renilla signal in NR2F6 agonist screening, cmpd/DMSO; conditions: Renilla, Table 14, read-out: Renilla F4, cmpd/DMSO (mean)
NR2F6 = biological target: T1, NR2F6 (Homo sapiens, UniProt P10588); assay: NR2F6 agonist screening, Firefly signal cmpd/DMSO; set-up: Firefly NR2F6 full length, cmpd/DMSO (mean) / Firefly F4, cmpd/DMSO (mean): unit of the concentration uncertain; conditions: for Firefly, cmpd/DMSO (mean): mean of repeats; for Firefly, cmpd repeat 1 / Firefly, cmpd repeat 2: raw signal; for activity (in words): screening result
T1 construct: expressed in transfected cells; also transient transfection
T1 sequence (P10588 1-404): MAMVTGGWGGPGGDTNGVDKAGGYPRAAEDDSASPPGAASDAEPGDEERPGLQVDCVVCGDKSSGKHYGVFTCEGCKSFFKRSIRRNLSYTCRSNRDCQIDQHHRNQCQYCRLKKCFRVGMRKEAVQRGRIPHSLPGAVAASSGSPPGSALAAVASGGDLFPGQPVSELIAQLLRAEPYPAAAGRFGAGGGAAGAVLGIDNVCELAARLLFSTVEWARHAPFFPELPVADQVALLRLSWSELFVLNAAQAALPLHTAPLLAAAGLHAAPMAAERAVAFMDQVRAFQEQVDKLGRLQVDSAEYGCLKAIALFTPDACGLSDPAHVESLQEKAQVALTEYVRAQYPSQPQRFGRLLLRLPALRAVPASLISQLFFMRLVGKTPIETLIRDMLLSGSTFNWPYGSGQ

[1] = Concentration 2 (unit uncertain), F4
[2] = Concentration 2 (unit uncertain)
[3] = Concentration 10 (unit uncertain), F4
[4] = Concentration 10 (unit uncertain)
[5] = Concentration 40 (unit uncertain), F4
[6] = Concentration 40 (unit uncertain)

| Structure (SMILES) | fold induction at 2 µM (HEK293 pGL4) | fold induction at 10 µM (HEK293 pGL4) | fold induction at 40 µM (HEK293 pGL4) | fold induction at 2 µM (Renilla) | fold induction at 10 µM (Renilla) | fold induction at 40 µM (Renilla) | Firefly F4, cmpd/DMSO (mean) (NR2F6; Table 14, 2 uM) | Firefly F4, cmpd/DMSO (mean) (NR2F6; Table 14, 10 uM) | Firefly F4, cmpd/DMSO (mean) (NR2F6; Table 14, 40 uM) | Firefly F4, cmpd/DMSO (mean) (NR2F6; [1]) | Firefly NR2F6 full length, cmpd/DMSO (mean) (NR2F6; [2]) | Firefly F4, cmpd/DMSO (mean) (NR2F6; [3]) | Firefly NR2F6 full length, cmpd/DMSO (mean) (NR2F6; [4]) | Firefly F4, cmpd/DMSO (mean) (NR2F6; [5]) | Firefly NR2F6 full length, cmpd/DMSO (mean) (NR2F6; [6]) | also measured |
| --- | --- | --- | --- | --- | --- | --- | --- | --- | --- | --- | --- | --- | --- | --- | --- | --- |
| Cc1ccc(NC(=O)c2noc3c2CCC3)cc1C [Compound C301] | 2.4 | 1.6 | 1.1 | 1.1 | 0.7 | 1 | 1.2 | 1.0 | 1.0 | – | – | – | – | – | – | – |
| Cc1ccc(NC(=O)c2noc3c2CCCC3)cc1C [Compound C302] | 1.8 | 1.4 | 0.8 | 0.7 | 1.1 | 1 | 1.2 | 0.9 | 0.9 | – | – | – | – | – | – | – |
| Cc1ccc(NC(=O)c2noc3c2CC(C(C)(C)C)CC3)cc1C (centres unmarked) [Compound C303] | 1.1 | 1.1 | 1.1 | 1 | 0.8 | 1 | 1.2 | 0.9 | 0.9 | – | – | – | – | – | – | – |
| Cc1cc(C)c(S(=O)(=O)NCc2nc3nc(C)cc(C)n3n2)c(C)c1 [Compound E10] | – | – | – | – | – | – | – | – | – | 1.1 | 1.3 | 1.0 | 1.5 | 0.8 | 1.1 | – |
| Cc1cc(C)n2nc(CNS(=O)(=O)c3ccc(F)cc3)nc2n1 [Compound E12] | 0.9 | 0.8 | 1 | 0.7 | 0.7 | 1 | 0.7 | 0.9 | 0.5 | – | – | – | – | – | – | – |
| COc1ccc(Cl)cc1S(=O)(=O)NCc1nc2nc(C)cc(C)n2n1 [Compound E15] | – | – | – | – | – | – | – | – | – | 1.3 | 1.2 | 1.1 | 0.8 | 0.8 | 1.1 | – |
| Cc1cc(C)n2nc(CNS(=O)(=O)c3c(F)c(F)c(F)c(F)c3F)nc2n1 [Compound E21] | – | – | – | – | – | – | – | – | – | – | – | – | – | – | – | Firefly, cmpd/DMSO (mean) (NR2F6): 7.3; Firefly, cmpd repeat 1 (NR2F6): 526; Firefly, cmpd repeat 2 (NR2F6): 306; Firefly, cmpd/DMSO repeat 1 (NR2F6): 9.5; Firefly, cmpd/DMSO repeat 2 (NR2F6): 5.6; activity (in words) (NR2F6): desirable activity |
| Cc1ccc(S(=O)(=O)NCc2cn3ccccc3n2)c(C)c1 [Compound E24] | – | – | – | – | – | – | – | – | – | 1.0 | 1.0 | 0.9 | 1.1 | 0.7 | 1.1 | – |
| Cc1ccc(S(=O)(=O)NCc2cn3cccc(C)c3n2)cc1C [Compound E41] | – | – | – | – | – | – | – | – | – | 0.9 | 1.1 | 0.7 | 1.0 | 0.4 | 0.9 | – |
| Cc1cccn2cc(CNS(=O)(=O)c3ccccc3F)nc12 [Compound E52] | – | – | – | – | – | – | – | – | – | 0.7 | 1.0 | 0.9 | 1.3 | 0.7 | 1.4 | – |
| Cc1ccc(S(=O)(=O)N(Cc2nc3nc(C)c(S)c(C)n3n2)c2ccccc2)cc1 [Compound E57] | – | – | – | – | – | – | – | – | – | 1.0 | 1.3 | 1.3 | 1.2 | 1.3 | 0.9 | – |
| Cc1cc(C)nc(Sc2nnc(-c3ccc(C)c(S(=O)(=O)N4CCOCC4)c3)c3ccccc23)n1 [Compound F1] | – | – | – | – | – | – | – | – | – | – | – | – | – | – | – | Firefly, cmpd/DMSO (mean) (NR2F6): 5.1; Firefly, cmpd repeat 1 (NR2F6): 310; Firefly, cmpd repeat 2 (NR2F6): 252; Firefly, cmpd/DMSO repeat 1 (NR2F6): 5.6; Firefly, cmpd/DMSO repeat 2 (NR2F6): 4.6 |
| COc1ccc(NC(=O)c2ccc3nc(-c4ccccc4)cn3c2)c(OC)c1 [Compound P1] | – | – | – | – | – | – | – | – | – | – | – | – | – | – | – | Firefly, cmpd/DMSO (mean) (NR2F6): 3.5; Firefly, cmpd repeat 1 (NR2F6): 236; Firefly, cmpd repeat 2 (NR2F6): 166; Firefly, cmpd/DMSO repeat 1 (NR2F6): 4.0; Firefly, cmpd/DMSO repeat 2 (NR2F6): 3.0; activity (in words) (NR2F6): good activity |
